Reference: publication PMC8733726, “Dioctanoyl Ultrashort Tetrabasic β-Peptides Sensitize Multidrug-Resistant Gram-Negative Bacteria to Novobiocin and Rifampicin” (Frontiers in Microbiology, 2021)
≈ marks a conversion by molar mass, not a printed value. Where two headings read alike, the source gives them in different places.

Columns and labels:
[1] = tested on: wild-type E. coli ATCC 25922; assay: microbe, parasite or virus in culture; format: cell-based, Escherichia coli; settings: for MICcombo: antibiotic with dUSTBβP 3 at 8 μg/mL; for MIC: Escherichia coli, ATCC25922, 18 h, read-out: MICantibiotic
Protocol: (§1) The adjuvant activities of dUSTBβPs were evaluated using checkerboard assay as previously described ([Berry et al., 2019]). Overnight-grown bacterial culture diluted in saline to 0.5 McFarland turbidity was successively diluted 1:50 in MHB to achieve a final concentration of 5 × 10^5 CFU/mL for inoculation. The antibiotic and adjuvant were serially diluted 2-fold along the x-axis and y-axis, respectively, resulting in varying concentrations of both agents in each well. Subsequently, the 96-well plate was incubated with equal volumes of bacterial inoculum at 37°C for 18 h. Confirmation of turbidity was done using an EMax Plus microplate reader (Molecular Devices, United States) at a wavelength of 590 nm. Wells comprising MHB alone or in the presence of bacterial cells were used as negative or positive controls, respectively. Fractional inhibitory concentration index (FICI) is determined by adding the FICs of both antibiotic and adjuvant. The FIC of the antibiotic is calculated by dividing the MIC of the antibiotic in the presence of the adjuvant by the MIC of the antibiotic alone. Similarly, the FIC of the adjuvant is calculated by dividing the MIC of the adjuvant in the presence of the antibiotic by the MIC of the adjuvant alone. FICI ≤ 0.5, 0.5 < x ≤ 4, and >4 were deemed synergistic, additive, and antagonistic, respectively ([Meletiadis et al., 2010]).

[2] = tested on: wild-type A. baumannii ATCC 17978; assay: Checkerboard assay; format: cell-based, Acinetobacter baumannii; settings: for MICcombo: antibiotic with dUSTBβP 3 at 8 μg/mL; for MIC: Acinetobacter baumannii, ATCC17978, 18 h, read-out: MICantibiotic
Excerpt: as §1, with “Overnight-grown” for “The adjuvant activities of dUSTBβPs were evaluated using checkerboard assay as previously described ([Berry et al., 2019]). Overnight-grown”, “Subsequently, the 96-well plate was incubated with equal volumes of bacterial inoculum at 37°C for 18 h.” left out, “alone.” for “alone. FICI ≤ 0.5, 0.5 < x ≤ 4, and >4 were deemed synergistic, additive, and antagonistic, respectively ([Meletiadis et al., 2010]).”

[3] = tested on: wild-type P. aeruginosa PAO1; assay: microbe, parasite or virus in culture; format: cell-based, Pseudomonas aeruginosa; settings: for MICcombo: antibiotic with dUSTBβP 3 at 8 μg/mL; for MIC: Pseudomonas aeruginosa, read-out: MICantibiotic
Excerpt: as §1, with “Overnight-grown” for “The adjuvant activities of dUSTBβPs were evaluated using checkerboard assay as previously described ([Berry et al., 2019]). Overnight-grown”, “Subsequently, the 96-well plate was incubated with equal volumes of bacterial inoculum at 37°C for 18 h.” left out, “alone.” for “alone. FICI ≤ 0.5, 0.5 < x ≤ 4, and >4 were deemed synergistic, additive, and antagonistic, respectively ([Meletiadis et al., 2010]).”

[4] = tested on: MDR A. baumannii clinical isolates; assay: Resistance phenotype (MICs of antibiotics) of MDR clinical isolates; format: cell-based, Acinetobacter baumannii; settings: Acinetobacter baumannii
[5] = tested on: MDR E. cloacae clinical isolates; assay: as above; format: cell-based, Enterobacter cloacae; settings: Enterobacter cloacae, read-out: MIC
[6] = tested on: MDR K. pneumoniae clinical isolates; assay: as above; format: cell-based, Klebsiella pneumoniae; settings: Klebsiella pneumoniae, read-out: MIC
[7] = tested on: MDR P. aeruginosa clinical isolates; assay: as above; format: cell-based, Pseudomonas aeruginosa; settings: Pseudomonas aeruginosa
[8] = tested on: MDR E. coli clinical isolates; assay: as above; format: cell-based, Escherichia coli; settings: Escherichia coli, read-out: MIC
[9] = ATCC 25922, antibiotic alone (Supplementary Table 7)

MIC ([4]; 92247, read-out: MIC) [µg/mL]	MIC ([4]; AB031, read-out: MIC) [µg/mL]	MIC [5]; 117029 [µg/mL]	MIC [5]; 118564 [µg/mL]	MIC [5]; 121187 [µg/mL]	MIC [6]; 113250 [µg/mL]	MIC [6]; 113254 [µg/mL]	MIC [6]; 116381 [µg/mL]	MIC ([7]; 259-96196, read-out: MIC) [µg/mL]	MIC ([7]; 262-101856, read-out: MIC) [µg/mL]	MIC ([7]; 264-104354, read-out: MIC) [µg/mL]	MIC ([7]; 91433, read-out: MIC) [µg/mL]	MIC ([8]; 94393 (mcr-1 +)) [µg/mL]	MIC ([8]; 94474 (mcr-1 +)) [µg/mL]	MIC [8]; 107115 [µg/mL]	MIC ([4]; AB027, read-out: MIC) [µg/mL]	MIC ([4]; LAC-4, read-out: MIC) [µg/mL]	MIC ([7]; 114228, read-out: MIC) [µg/mL]	Structure (SMILES)	further results
																		C[C@@H]1O[C@@H]1P(=O)(O)O [Fosfomycin]	MICcombo ([1]; ATCC 25922): 8 µg/mL; MIC [1, 9]: 16 µg/mL; MICcombo ([2]; ATCC 17978): 256 µg/mL; MIC ([2]; ATCC 17978, antibiotic alone (Supplementary Table 7)): > 256 µg/mL; MICcombo ([3]; PAO1): 2 µg/mL; MIC ([3]; 18 h, PAO1, antibiotic alone (Supplementary Table 7)): 32 µg/mL (≈ 232 µM)
4 (≈ 8.32 µM)	4 (≈ 8.32 µM)	≤ 0.25	0.25 (≈ 0.52 µM)	0.25 (≈ 0.52 µM)	1 (≈ 2.08 µM)	1 (≈ 2.08 µM)	16 (≈ 33.3 µM)	> 64	32 (≈ 66.6 µM)	32 (≈ 66.6 µM)	16 (≈ 33.3 µM)	≤ 0.25	≤ 0.25	> 64				CO/N=C(\C(=O)N[C@@H]1C(=O)N2C(C(=O)[O-])=C(C[N+]3(C)CCCC3)CS[C@H]12)c1csc(N)n1 [CPM, cefepime]	
																		CN[C@H](CC(C)C)C(=O)N[C@H]1C(=O)N[C@@H](CC(N)=O)C(=O)N[C@H]2C(=O)N[C@H]3C(=O)N[C@H](C(=O)N[C@H](C(=O)O)c4cc(O)cc(O)c4-c4cc3ccc4O)[C@H](O)c3ccc(c(Cl)c3)Oc3cc2cc(c3O[C@@H]2O[C@H](CO)[C@@H](O)[C@H](O)[C@H]2O[C@H]2C[C@](C)(N)[C@H](O)[C@H](C)O2)Oc2ccc(cc2Cl)[C@H]1O [Vancomycin]	MICcombo ([1]; ATCC 25922): 64 µg/mL; MIC [1]: 128 µg/mL; MICcombo ([2]; ATCC 17978): 32 µg/mL; MIC [2]: > 128 µg/mL; MICcombo ([3]; PAO1): 256 µg/mL; MIC ([3]; PAO1, 18 h): 256 µg/mL (≈ 177 µM)
	0.25 (≈ 0.448 µM)	0.5 (≈ 0.895 µM)			1 (≈ 1.79 µM)	0.5 (≈ 0.895 µM)	0.5 (≈ 0.895 µM)	8 (≈ 14.3 µM)	8 (≈ 14.3 µM)	8 (≈ 14.3 µM)	16 (≈ 28.6 µM)	0.5 (≈ 0.895 µM)	1 (≈ 1.79 µM)	0.125 (≈ 0.224 µM)	0.5 (≈ 0.895 µM)	0.06 (≈ 0.107 µM)	8 (≈ 14.3 µM)	CN(C)[C@@H]1C(O)=C(C(N)=O)C(=O)[C@@]2(O)C(O)=C3C(=O)c4c(O)c(NC(=O)CN5CCCC5)cc(F)c4C[C@H]3C[C@@H]12 [ERC, eravacycline]	
	2 (≈ 3.59 µM)	4 (≈ 7.19 µM)			2 (≈ 3.59 µM)	4 (≈ 7.19 µM)	4 (≈ 7.19 µM)	64 (≈ 115 µM)	64 (≈ 115 µM)	64 (≈ 115 µM)	128 (≈ 230 µM)	4 (≈ 7.19 µM)	16 (≈ 28.7 µM)	4 (≈ 7.19 µM)	1 (≈ 1.8 µM)	1 (≈ 1.8 µM)	16 (≈ 28.7 µM)	CN(C)c1cc(CNCC(C)(C)C)c(O)c2c1C[C@H]1C[C@H]3[C@H](N(C)C)C(O)=C(C(N)=O)C(=O)[C@@]3(O)C(O)=C1C2=O [OMC, omadacycline]	
																		O=C(O)c1cn(C2CC2)c2cc(N3CCNCC3)c(F)cc2c1=O [Ciprofloxacin]	MICcombo ([1]; ATCC 25922): 0.002 µg/mL; MIC [1, 9]: 0.008 µg/mL
								> 1020	16 (≈ 38 µM)	16 (≈ 38 µM)	16 (≈ 38 µM)						8 (≈ 19 µM)	C[C@@H](O)[C@H]1C(=O)N2C(C(=O)O)=C(S[C@@H]3CN[C@H](CNS(N)(=O)=O)C3)[C@H](C)[C@H]12 [DOR, doripenem]	
128 (≈ 282 µM)	> 128	> 128	> 128	32 (≈ 70.4 µM)	1 (≈ 2.2 µM)	1 (≈ 2.2 µM)	> 128	> 128	> 128	> 128	> 128	1 (≈ 2.2 µM)	4 (≈ 8.8 µM)	> 128	> 128			Cc1nnc(SCC2=C(C(=O)O)N3C(=O)[C@@H](NC(=O)Cn4cnnn4)[C@H]3SC2)s1 [CFZ, cefazolin]	
4 (≈ 10.4 µM)	1 (≈ 2.61 µM)	≤ 0.03	0.12 (≈ 0.313 µM)	0.06 (≈ 0.156 µM)	≤ 0.03	≤ 0.03	≤ 0.03	1020 (≈ 2670 µM)	32 (≈ 83.4 µM)	64 (≈ 167 µM)	16 (≈ 41.7 µM)	≤ 0.03	≤ 0.03	32 (≈ 83.4 µM)	16 (≈ 41.7 µM)	< 1	8 (≈ 20.9 µM)	C[C@@H](O)[C@H]1C(=O)N2C(C(=O)O)=C(S[C@@H]3CN[C@H](C(=O)N(C)C)C3)[C@H](C)[C@H]12 [MER, meropenem]	
		≤ 0.03			≤ 0.03	≤ 0.03	0.12 (≈ 0.252 µM)	> 32	> 32	> 32	> 32	≤ 0.03	≤ 0.03	> 32				C[C@@H](O)[C@H]1C(=O)N2C(C(=O)O)=C(S[C@@H]3CN[C@H](C(=O)Nc4cccc(C(=O)O)c4)C3)[C@H](C)[C@H]12 [ETP, ertapenem]	
	0.25 (≈ 0.835 µM)	0.25 (≈ 0.835 µM)			0.25 (≈ 0.835 µM)	0.12 (≈ 0.401 µM)	0.5 (≈ 1.67 µM)	32 (≈ 107 µM)	32 (≈ 107 µM)	32 (≈ 107 µM)	32 (≈ 107 µM)	0.25 (≈ 0.835 µM)	0.25 (≈ 0.835 µM)	8 (≈ 26.7 µM)	32 (≈ 107 µM)	< 1		C[C@@H](O)[C@H]1C(=O)N2C(C(=O)O)=C(SCCN=CN)C[C@H]12 [IMI, imipenem]	
< 1	2 (≈ 3.42 µM)	2 (≈ 3.42 µM)	2 (≈ 3.42 µM)	1 (≈ 1.71 µM)	≤ 1	≤ 1	≤ 1	> 64	> 64	8 (≈ 13.7 µM)	> 32	2 (≈ 3.42 µM)	2 (≈ 3.42 µM)	2 (≈ 3.42 µM)	> 64	4 (≈ 6.83 µM)		NCC[C@H](O)C(=O)N[C@@H]1C[C@H](N)[C@@H](O[C@H]2O[C@H](CN)[C@@H](O)[C@H](O)[C@H]2O)[C@H](O)[C@H]1O[C@H]1O[C@H](CO)[C@@H](O)[C@H](N)[C@H]1O [AMK, amikacin]	
0.25 (≈ 0.427 µM)	8 (≈ 13.7 µM)	0.5 (≈ 0.854 µM)					1 (≈ 1.71 µM)	32 (≈ 54.6 µM)	32 (≈ 54.6 µM)	32 (≈ 54.6 µM)	32 (≈ 54.6 µM)	0.25 (≈ 0.427 µM)	1 (≈ 1.71 µM)	0.25 (≈ 0.427 µM)	4 (≈ 6.83 µM)	< 4		CN(C)c1cc(NC(=O)CNC(C)(C)C)c(O)c2c1C[C@H]1C[C@H]3[C@H](N(C)C)C(O)=C(C(N)=O)C(=O)[C@@]3(O)C(O)=C1C2=O [TGC, tigecycline]	
								> 64	64 (≈ 115 µM)	> 64	> 64							CO/N=C(\C(=O)N[C@@H]1C(=O)N2C(C(=O)O)=C(CSc3nc(=O)c(=O)[nH]n3C)CS[C@H]12)c1csc(N)n1 [CTR, ceftriaxone]	
32 (≈ 74.9 µM)		> 32	> 32	> 32	1 (≈ 2.34 µM)	1 (≈ 2.34 µM)	16 (≈ 37.4 µM)	> 32	> 32	> 32	> 32	4 (≈ 9.36 µM)	16 (≈ 37.4 µM)	> 32				CO[C@@]1(NC(=O)Cc2cccs2)C(=O)N2C(C(=O)O)=C(COC(N)=O)CS[C@@H]21 [FOX, cefoxitin]	

Structure (SMILES)	MIC ([4]; 92247, read-out: MIC) [µg/mL]	MIC ([4]; AB031, read-out: MIC) [µg/mL]	MIC [5]; 117029 [µg/mL]	MIC [5]; 118564 [µg/mL]	MIC [5]; 121187 [µg/mL]	MIC [6]; 113250 [µg/mL]	MIC [6]; 113254 [µg/mL]	MIC [6]; 116381 [µg/mL]	MIC ([7]; 259-96196, read-out: MIC) [µg/mL]	MIC ([7]; 262-101856, read-out: MIC) [µg/mL]	MIC ([7]; 264-104354, read-out: MIC) [µg/mL]	MIC ([7]; 91433, read-out: MIC) [µg/mL]	MIC ([8]; 94393 (mcr-1 +)) [µg/mL]	MIC ([8]; 94474 (mcr-1 +)) [µg/mL]	MIC [8]; 107115 [µg/mL]	MIC ([4]; AB027, read-out: MIC) [µg/mL]	MIC ([4]; LAC-4, read-out: MIC) [µg/mL]	MIC ([7]; 114228, read-out: MIC) [µg/mL]	further results
CO/N=C(\C(=O)N[C@@H]1C(=O)N2C(C(=O)O)=C(COC(C)=O)CS[C@H]12)c1csc(N)n1 [CTX, cefotaxime]		16 (≈ 35.1 µM)							2050 (≈ 4500 µM)	128 (≈ 281 µM)	2050 (≈ 4500 µM)							128 (≈ 281 µM)	MIC [4]: > 256 µg/mL; MIC [7]; 91433: 1020 µg/mL (≈ 2250 µM)
